Measured values published in US20240050510A1, “COMBINATION THERAPY COMPRISING UNCARIA FOR TREATING ANXIETY AND DEPRESSION” (The Open University, priority 2020, published 2024).

Columns and labels:
[1] = literature; cited from earlier work
ICR outbred mice [2] = experiment: Elevated plus-maze (EPM), anxiety-like behavior in UCMS-stressed mice; assay type: in vivo; details: 3-week treatment (FIG. 2), compared to saline
Method: Animals. ICR outbred mice (Envigo RMS (Harlen), Israel) were kept in the vivarium of the Psychobiological laboratory of the Open University, […] Medical Center, Jerusalem. Mice were kept on a reversed 12-hour light/dark cycle and given ad libitum access to food and water. All experiments were performed during the dark phase under red light (7:00-19:00). All experiments were approved by the Committee for animal care and use according to the NIH guidelines. Drugs administration. […] Unpredictable chronic mild stress (UCMS). Mice were exposed to UCMS for 4 weeks at the age of 4 weeks as previously described (Malkoff, A., et al. (2008) J Neural Transm 115, 1563-1571). Elevated plus-maze (EPM) and Open field test (OFT). Anxiety-like behavior was assessed using EPM and OFT as previously described ([…]. (2009) Brain Res 1256, 138-148). Locomotion was assessed using the OFT and expressed as the percentage of time that the mouse moved in a velocity above 0.1 pixel/sec. Data analysis and interpretation of results. Data was analyzed using a one-way ANOVA with Treatment as a between subject variable, performed on the time spent in the center area in the Novel Open Field and the time spent in the open arms for anxiety like behavior, and depressive like behavior was measured as the time the animal spent floating without moving. […]

BDNF = experiment: Hippocampal BDNF levels by sandwich ELISA; assay type: in vivo, mice; details: 3-week treatment (FIG. 3B), compared to saline
Method: Animals. ICR outbred mice (Envigo RMS (Harlen), Israel) were kept in the vivarium of the Psychobiological laboratory of the Open University, […] Medical Center, Jerusalem. Mice were kept on a reversed 12-hour light/dark cycle and given ad libitum access to food and water. All experiments were performed during the dark phase under red light (7:00-19:00). All experiments were approved by the Committee for animal care and use according to the NIH guidelines. Drugs administration. […] Assessment of BDNF levels. Hippocampus tissue samples are prepared as previously described ([…]., et al., European neuropsychopharmacology, 2006. 16(5): p. 329-339). Briefly, tissues were homogenized in cold extraction Tris-buffer and then acidified with 0.1 M HCl (pH 3.0) for 15 min at room temperature. Homogenates were neutralized with 0.1 M NaOH (pH 7.6) and centrifuged in a microcentrifuge at 7,000 g for 10 min. BDNF levels in the supernatant were evaluated using sandwich ELISA as previously described (Baker-Herman, T. L., et al., Nat Neurosci, 2004. 7(1): p. 48-55).

ICR outbred mice [3] = experiment: Open field test (OFT), anxiety-like behavior; assay type: in vivo; details: 1-week treatment (FIG. 1C)
Method: Animals. ICR outbred mice (Envigo RMS (Harlen), Israel) were kept in the vivarium of the Psychobiological laboratory of the Open University, […] Medical Center, Jerusalem. Mice were kept on a reversed 12-hour light/dark cycle and given ad libitum access to food and water. All experiments were performed during the dark phase under red light (7:00-19:00). All experiments were approved by the Committee for animal care and use according to the NIH guidelines. Drugs administration. […] Unpredictable chronic mild stress (UCMS). Mice were exposed to UCMS for 4 weeks at the age of 4 weeks as previously described (Malkoff, A., et al. (2008) J Neural Transm 115, 1563-1571). Elevated plus-maze (EPM) and Open field test (OFT). Anxiety-like behavior was assessed using EPM and OFT as previously described ([…]. (2009) Brain Res 1256, 138-148). Locomotion was assessed using the OFT and expressed as the percentage of time that the mouse moved in a velocity above 0.1 pixel/sec.

ICR outbred mice [4] = experiment: Novel Open Field (NOF), anxiety-like behavior; assay type: in vivo; details: 3 weeks of treatment after 30 days UCMS (FIG. 4B); in comparison to the Saline and UR groups
Method: Animals. ICR outbred mice (Envigo RMS (Harlen), Israel) were kept in the vivarium of the Psychobiological laboratory of the Open University, […] Medical Center, Jerusalem. Mice were kept on a reversed 12-hour light/dark cycle and given ad libitum access to food and water. All experiments were performed during the dark phase under red light (7:00-19:00). All experiments were approved by the Committee for animal care and use according to the NIH guidelines. Drugs administration. […] Unpredictable chronic mild stress (UCMS). Mice were exposed to UCMS for 4 weeks at the age of 4 weeks as previously described (Malkoff, A., et al. (2008) J Neural Transm 115, 1563-1571). Novel Open Field (NOF). The novel open field consists of an empty square arena (40×40×40 cm) divided into 36 identical squares and surrounded by Perspex opaque walls. […] Mice were placed in the center of the arena and their behavior was video recorded for a total of 5 min, and later coded by an observer blind to the mice's treatment. Anxiety-like behavior was measured by the time spent in the peripheral area, i.e., the peripheral ring of the arena (6.67 cm from each wall, Walsh & Cummins, (1976) Psychological Bulletin, 83 (3), 482-504). […] Effects were evaluated in independent mice groups following 1 and 3 weeks of treatment. […]

ICR outbred mice [5] = experiment: Forced Swim Test (FST), depressive-like behavior; assay type: in vivo; details: 3 week treatment after 30 days UCMS (FIG. 5B); in comparison to the NHT and Saline groups
Method: Animals. ICR outbred mice (Envigo RMS (Harlen), Israel) were kept in the vivarium of the Psychobiological laboratory of the Open University, […] Medical Center, Jerusalem. Mice were kept on a reversed 12-hour light/dark cycle and given ad libitum access to food and water. All experiments were performed during the dark phase under red light (7:00-19:00). All experiments were approved by the Committee for animal care and use according to the NIH guidelines. Drugs administration. […] Unpredictable chronic mild stress (UCMS). Mice were exposed to UCMS for 4 weeks at the age of 4 weeks as previously described (Malkoff, A., et al. (2008) J Neural Transm 115, 1563-1571). Forced Swim Test (FST). […] Depression like behavior was measured as the time the animal spent floated without moving, and swimming was defined as the time the animal spent engaged in active swimming or struggle movement. Effects were evaluated in independent mice groups following 1 and 3 weeks of treatment. The test was recorded by Viewer III (BIOB SERVE) software. […] Data was analyzed using a one-way ANOVA with Treatment as a between subject variable, performed on the time spent in the center area in the Novel Open Field and the time spent in the open arms for anxiety like behavior, and depressive like behavior was measured as the time the animal spent floating without moving. […]

SMILES | isolation-induced increased aggressiveness and decreased sociality [1] | anxiety-like behavior in the EPM (time spent in the open arms) (ICR outbred mice [2]) | hippocampal BDNF levels (BDNF) | anxiety-like behavior in the OFT (ICR outbred mice [3]) | time in the center of the arena, novel open field (ICR outbred mice [4]) | time floated-immobile in the FST (depressive-like behavior) (ICR outbred mice [5])
C/C=C1/CN2CCc3c([nH]c4ccccc34)[C@@H]2C[C@@H]1/C(=C/OC)C(=O)OC [GM, geissoschizine methyl ether] | ameliorated | – | – | – | – | –
CN(C)CCC[C@@]1(c2ccc(F)cc2)OCc2cc(C#N)ccc21 [escitalopram] | – | reduced anxiety-like behavior | increased BDNF levels | ineffective | spent significantly more time in the center of the arena | spent significantly less time floated-immobile
